Source: patent US20090285887A1, “Pharmaceutical Composition Comprising A Plurality of Mini-Tablets Comprising A Factor XA Inhibitor” (priority 2006, published 2009)

Experiment: Preliminary pharmacokinetic analysis of absorption throughout the GI tract
Type: in vivo
Description: In one aspect of the invention, the pharmaceutical composition enables the Factor Xa inhibitor to be absorbed throughout the GI tract, i.e. in the duodenum (proximal small intestine), ileum (distal small intestine) and cecum/colon. […] Accordingly, this comprises a further aspect of the invention.

C[C@@H](C(=O)N1CCOCC1)N1CC[C@H](NS(=O)(=O)/C=C/c2ccc(Cl)s2)C1=O [Compound A, (E)-2-(5-chlorothien-2-yl)-N-{(3S)-1-[(1S)-1-methyl-2-morpholin-4-yl-2-oxoethyl]-2-oxopyrrolidin-3-yl}ethenesulfonamide]
absorption throughout the GI tract: may be absorbed throughout the GI tract
